Patent US12479804B2, “Herbicidal compounds” (SYNGENTA CROP PROTECTION AG, priority 2019, dated 2025)

Key:
Experiment in all cases: Glasshouse herbicidal test, pre- and post-emergence, percentage damage to the plant
Format in all cases: in vivo
Setaria faberi (SETFA) = conditions: 250 g/h, evaluated after 13 days; for SETFA POST percentage damage caused to the plant (five-point scale): post-emergence; for SETFA PRE percentage damage caused to the plant (five-point scale): pre-emergence
Experimental: (§1) Seeds of a variety of test species are sown in standard soil in pots (Lolium perenne (LOLPE), Setaria faberi (SETFA), Alopecurus myosuroides (ALOMY), Echinochloa crus-galli (ECHCG), Avena fatua (AVEFA)). After cultivation for one day (pre-emergence) or after 8 days cultivation (post-emergence) under controlled conditions in a glasshouse (at 24/16° C., day/night; 14 hours light; 65% humidity), the plants are sprayed with an aqueous spray solution derived from the formulation of the technical active ingredient in acetone/water (50:50) solution containing 0.5% Tween 20 (polyoxyethelyene sorbitan monolaurate, CAS RN 9005-64-5). Compounds are applied at 250 g/h. The test plants are then grown in a glasshouse under controlled conditions in a glasshouse (at 24/16° C., day/night; 14 hours light; 65% humidity) and watered twice daily. After 13 days for pre and post-emergence, the test is evaluated for the percentage damage caused to the plant. The biological activities are shown in the following table on a five-point scale (5=80-100%; 4=60-79%; 3=40-59%; 2=20-39%; 1=0-19%).

Lolium perenne (LOLPE) = conditions: 250 g/h, evaluated after 13 days; for LOLPE POST percentage damage caused to the plant (five-point scale): post-emergence; for LOLPE PRE percentage damage caused to the plant (five-point scale): pre-emergence
Experimental: as §1

[1] = tested on: Echinochloa crus-galli (ECHCG); conditions: 250 g/h, evaluated after 13 days; for ECHCG POST percentage damage caused to the plant (five-point scale): post-emergence; for ECHCG PRE percentage damage caused to the plant (five-point scale): pre-emergence
Experimental: as §1

[2] = tested on: Alopecurus myosuroides (ALOMY); conditions: 250 g/h, evaluated after 13 days; for ALOMY POST percentage damage caused to the plant (five-point scale): post-emergence; for ALOMY PRE percentage damage caused to the plant (five-point scale): pre-emergence
Experimental: as §1

Avena fatua (AVEFA) = conditions: 250 g/h, evaluated after 13 days; for AVEFA POST percentage damage caused to the plant (five-point scale): post-emergence; for AVEFA PRE percentage damage caused to the plant (five-point scale): pre-emergence
Experimental: as §1

SMILES | SETFA POST percentage damage caused to the plant (five-point scale) (Setaria faberi (SETFA)) | SETFA PRE percentage damage caused to the plant (five-point scale) (Setaria faberi (SETFA)) | LOLPE POST percentage damage caused to the plant (five-point scale) (Lolium perenne (LOLPE)) | LOLPE PRE percentage damage caused to the plant (five-point scale) (Lolium perenne (LOLPE)) | ECHCG POST percentage damage caused to the plant (five-point scale) [1] | ECHCG PRE percentage damage caused to the plant (five-point scale) [1] | ALOMY POST percentage damage caused to the plant (five-point scale) [2] | ALOMY PRE percentage damage caused to the plant (five-point scale) [2] | AVEFA POST percentage damage caused to the plant (five-point scale) (Avena fatua (AVEFA)) | AVEFA PRE percentage damage caused to the plant (five-point scale) (Avena fatua (AVEFA))
CC#Cc1cc(C)c(C2C(=O)CC3(CCN(C)C(=O)C3=O)CC2=O)c(C)c1 (centres unmarked) [Compound A5] | 5 (5=80-100%) | 5 (5=80-100%) | 5 (5=80-100%) | 5 (5=80-100%) | 5 (5=80-100%) | 5 (5=80-100%) | 5 (5=80-100%) | 3 (3=40-59%) | 4 (4=60-79%) | 3 (3=40-59%)
CC#Cc1cc(C)c(C2C(=O)CC3(CCCN(S(=O)(=O)CC)CC3)CC2=O)c(C)c1 (centres unmarked) [Compound A8] | 5 (5=80-100%) | 5 (5=80-100%) | 5 (5=80-100%) | 5 (5=80-100%) | 5 (5=80-100%) | 5 (5=80-100%) | 5 (5=80-100%) | 5 (5=80-100%) | 5 (5=80-100%) | 5 (5=80-100%)
CC#Cc1cc(C)c(C2C(=O)CC3(CCCN(C(C)=O)CC3)CC2=O)c(C)c1 (centres unmarked) [Compound A9] | 5 (5=80-100%) | 5 (5=80-100%) | 5 (5=80-100%) | 5 (5=80-100%) | 5 (5=80-100%) | 5 (5=80-100%) | 5 (5=80-100%) | 5 (5=80-100%) | 5 (5=80-100%) | 5 (5=80-100%)
CC#Cc1cc(C)c(C2C(=O)CC3(C=CN(C(=O)NC(=O)C(C)(C)C)CC3)CC2=O)c(C)c1 (centres unmarked) [Compound A54] | 5 (5=80-100%) | 5 (5=80-100%) | 5 (5=80-100%) | 5 (5=80-100%) | 5 (5=80-100%) | 5 (5=80-100%) | 5 (5=80-100%) | 5 (5=80-100%) | 5 (5=80-100%) | 5 (5=80-100%)
CC#Cc1cc(C)c(C2=C(OC(C)=O)CC3(CCCN(C(C)=O)CC3)CC2=O)c(C)c1 (centres unmarked) [Compound P1] | 5 (5=80-100%) | 5 (5=80-100%) | 5 (5=80-100%) | 5 (5=80-100%) | 5 (5=80-100%) | 5 (5=80-100%) | 5 (5=80-100%) | 5 (5=80-100%) | 5 (5=80-100%) | 5 (5=80-100%)
CC#Cc1cc(C)c(C2=C(OC(C)=O)CC3(CCN(C(C)=O)C(=O)C3)CC2=O)c(C)c1 (centres unmarked) [Compound P2] | 5 (5=80-100%) | 5 (5=80-100%) | 5 (5=80-100%) | 5 (5=80-100%) |  | 5 (5=80-100%) | 5 (5=80-100%) | 5 (5=80-100%) | 5 (5=80-100%) | 5 (5=80-100%)
CC#Cc1cc(C)c(C2C(=O)CC3(CCN(C(C)=O)C(C)C3)CC2=O)c(C)c1 (centres unmarked) [Compound A58] | 5 (5=80-100%) | 5 (5=80-100%) | 5 (5=80-100%) | 5 (5=80-100%) | 5 (5=80-100%) | 5 (5=80-100%) | 5 (5=80-100%) | 5 (5=80-100%) | 5 (5=80-100%) | 5 (5=80-100%)
CC#Cc1cc(C)c(C2C(=O)CC3(C=CN(C(=O)c4ccccn4)CC3)CC2=O)c(C)c1 (centres unmarked) [Compound A48] | 5 (5=80-100%) | 5 (5=80-100%) | 5 (5=80-100%) | 5 (5=80-100%) | 5 (5=80-100%) | 5 (5=80-100%) | 5 (5=80-100%) | 5 (5=80-100%) | 5 (5=80-100%) | 5 (5=80-100%)
CC#Cc1cc(C)c(C2C(=O)CC3(CCCN(C(=O)OC(C)(C)C)CC3)CC2=O)c(C)c1 (centres unmarked) [Compound A6] | 5 (5=80-100%) | 5 (5=80-100%) | 5 (5=80-100%) | 5 (5=80-100%) | 5 (5=80-100%) | 5 (5=80-100%) | 5 (5=80-100%) | 4 (4=60-79%) | 4 (4=60-79%) | 4 (4=60-79%)
CC#Cc1cc(C)c(C2C(=O)CC3(C=CN(C(=O)C(F)F)CC3)CC2=O)c(C)c1 (centres unmarked) [Compound A56] | 5 (5=80-100%) | 5 (5=80-100%) | 5 (5=80-100%) | 5 (5=80-100%) | 5 (5=80-100%) | 5 (5=80-100%) | 5 (5=80-100%) | 5 (5=80-100%) | 5 (5=80-100%) | 5 (5=80-100%)
CC#Cc1cc(C)c(C2C(=O)CC3(C=CN(C(=O)NC(C)(C)C)CC3)CC2=O)c(C)c1 (centres unmarked) [Compound A53] | 5 (5=80-100%) | 5 (5=80-100%) | 5 (5=80-100%) | 5 (5=80-100%) | 5 (5=80-100%) | 5 (5=80-100%) | 5 (5=80-100%) | 5 (5=80-100%) | 4 (4=60-79%) | 2 (2=20-39%)
CC#Cc1cc(C)c(C2C(=O)CC3(CCNC(=O)C3)CC2=O)c(C)c1 (centres unmarked) [Compound A2] | 5 (5=80-100%) | 5 (5=80-100%) | 4 (4=60-79%) | 4 (4=60-79%) | 5 (5=80-100%) | 3 (3=40-59%) | 3 (3=40-59%) | 3 (3=40-59%) | 4 (4=60-79%) | 3 (3=40-59%)
